Patent US12503432B2, “Ionizable lipids for nucleic acid delivery” (Global Life Sciences Solutions Canada ULC, priority 2019, dated 2025)

Assays:
[1] = LNP characterization: size and PDI by dynamic light scattering, mRNA encapsulation efficiency by RiboGreen assay; assay type: physicochemical
Procedure: Particle sizes and “polydispersity index” (PDI) of the lipid particle were measured by dynamic light scattering (DLS). PDI indicates the width of the particle distribution. This is a parameter calculated from a cumulative analysis of the (DLS)-measured intensity autocorrelation function assuming a single particle size mode and a single exponential fit to the autocorrelation function. […] The particles produced by mechanical micromixers such as the NanoAssemblr® Spark™ and NanoAssemblr® Benchtop (Precision NanoSystems Inc.) are substantially homogeneous in size assuming all other variables are neutral. A lower PDI indicates a more homogenous population of lipid particles. The Spark™ instrument is used in a screening setting to identify the lead compositions. Once the composition is selected, the lipid particle can be fine-tuned using the NanoAssemblr® Benchtop. Once the process parameters Flow Rate Ratio and Total Flow Rate is identified for the specific nanoparticle composition, the nanoparticle technology can be scaled up using the same process parameter values.
Lipid particles were also manufactured by a larger microfluidic mixer instrument, the NanoAssemblr® Ignite™ for testing. Briefly, 350 μL of mRNA was diluted using 100 mM sodium acetate buffer to the required concentration of 0.2 to 0.3 mg/mL. Lipid particle samples were then prepared by running both fluids, namely, nucleic acids in aqueous solvent and Lipid Mix in ethanol at a flow ratio of 3:1 and at a total flow rate of 12 ml/min in the microfluidic mixer. Following mixing in the microfluidic device, the post cartridge lipid nucleic acid particle sample was diluted into RNAse free tubes containing three to 40 volumes of phosphate buffered saline (PBS), pH 7.4. Ethanol was finally removed through dialysis in PBS, pH 7, or using Amicon™ centrifugal filters (Millipore, USA) at 3000 RPM, or using TFF systems. Once the required concentration was achieved, the lipid nucleic acid particles were filter sterilized using 0.2 μm filters in aseptic conditions. Final encapsulation efficiency was measured by the Ribogreen™ assay. Quant-iT™ RiboGreen® RNA Reagent and Kit (Invitrogen) following manufacturer directions.
Messenger RNA or plasmid nucleic acid therapeutic (NAT) as described below, was diluted using sodium acetate buffer to the required concentration. Lipid nucleic acid particle (LNAP) samples were then prepared by running both fluids using the NanoAssemblr® Spark instrument. Briefly, […] of nucleic acids in 100 mM sodium acetate buffer in a total volume of 32 μL was mixed with 16 μL of 37.5 mM lipid mix solution as required by the N/P ratios (4, 6, or 10 in illustrated examples). The microfluidically mixed lipid nucleic acid particles (LNAP) made in the instrument were immediately diluted down with 48 μL Ca++ and Mg++ free 1× PBS at pH 7.4 in the aqueous output well. These LNAP were immediately collected into microcentrifuge tubes containing 96 μL of the same buffer at pH 7.4. Encapsulation efficiency was measured by a modified Ribogreen™ assay (Quanti-iT RiboGreen™ RNA assay kit, Fisher). This information was used to establish the desired dosage.
After the lipid particles were made as described in Example 17, particle size (hydrodynamic diameter of the particles) was determined by Dynamic Light Scattering (DLS) using a ZetaSizer™ Nano ZS™ (Malvern Instruments, UK). He/Ne laser of 633 nm wavelength was used as the light source. Data were measured from the scattered intensity data conducted in backscattering detection mode (measurement angle=173). Measurements were an average of 10 runs of two cycles each per sample. Z-Average size was reported as the particle size, and is defined as the harmonic intensity averaged particle diameter. These LNP characteristics, as well as the results of the mRNA encapsulation efficiency for various Lipid Mixes are also described in the application are shown in Tables 4, 5 and 6. […]

C57BL/6 mice = assay: In vivo delivery of EPO-encoded mRNA LNP via intravenous route, serum EPO ELISA; parameters: key to EPO Protein expression: IV in mice: *: The number of asterix symbols indicates protein expression levels interpreted by the inventors from quantitative data; **: The number of asterix symbols indicates protein expression levels interpreted by the inventors from quantitative data; ***: The number of asterix symbols indicates protein expression levels interpreted by the inventors from quantitative data; ****: The number of asterix symbols indicates protein expression levels interpreted by the inventors from quantitative data; *****: The number of asterix symbols indicates protein expression levels interpreted by the inventors from quantitative data; *******: The number of asterix symbols indicates protein expression levels interpreted by the inventors from quantitative data; settings: for EPO Protein expression: IV in mice: qualitative grade interpreted from quantitative data
Excerpt: Lipid Nanoparticles with the composition IL/DSPC/Cholesterol/PEG-DMG2000 (LM 02—see Table 3) were used to encapsulate recombinant human erythropoietin (EPO) encoded mRNA with 5-moU modifications [TriLink CleanCapo 5-moU EPO mRNA L7201]. To create the LNP, lipid mix in ethanol was microfluidically mixed with a low PH buffered solution of 5-moU EPO mRNA mixer at an N/P ratio of 6 using a NanoAssemblr® Ignite™ microfluidic mixer. The microfluidically mixed particles were downstream processed using Amicon® ultra 15 10 kDa MWCO units (EMD Millipore) filtration technique. The RNA loaded lipid particles were then characterized for size, PDI and Encapsulation Efficiency (EE). Size and PDI were measured using dynamic light scattering techniques described above, and nucleic acid encapsulation efficiency was calculated using a Quant-iT RiboGreen RNA assay as described supra, modified to use hEPO mNA as the standard instead if the standard RNA in the kit. The hydrodynamic diameter of these mRNA-LNPs was ˜70 nm with a PDI in the range of 0.02 to 0.1 and an encapsulation efficiency of ˜97.8%.
Animals were handled according to the Institutional Animal Care and Use Committee ethics protocols. For experiments, 6-8 week old C57BL/6 mice were purchased from Envigo (South Kent, WA, USA). For in vivo activity, female C57BL/6 mice were treated intravenously with EPO mRNA LNPs at specified dosages of 0.5-3 mg/Kg. Samples of 50-75 μL of blood were collected 6 h post administration via saphenous vein, and at regular time intervals of 24 h or 48 h.
After harvest, blood was immediately prepared to produce serum samples using standard techniques, and stored at −80 degrees C. Briefly, after collection, the blood was allowed to clot at room temperature for 15-30 minutes. The clot was removed by centrifuging the tubes at 1000-2000×g for 10 min at 4 degrees Celsius. The clear golden-yellow color supernatant was carefully removed and transferred to sterile screw-capped clear polypropylene tubes on ice. The serum was then stored, if necessary, at −80° C. until analysis.
Samples were thawed, then analyzed at appropriate dilutions for EPO protein expression and for cytokine/chemokine levels. The total serum EPO levels were evaluated using Quantikine® IVD EPO ELISA kit (Bio-Techne, Minneapolis, MN, USA).
Following i.v administration of a 0.5 mg/Kg dose of recombinant human EPO-encoded mRNA LNPs containing ionizable lipid MC3, PNI 121 or PNI 123 using the LM02 composition at N/P 6, EPO expression levels at 6 h (upper, FIG. 6) and at 24 h (lower, FIG. 6) in C56BL/6 mice were examined; hEPO protein was measured using Quantikine® IVD® ELISA Human Erythropoietin Immunoassay protocol.

[2] = 5-moU EPO encoded LNPs, IL:DSPC:cholesterol:DMG-PEG (50:10:38.5:1.5), N/P 6
[3] = Table 4 LNPs, payload and lipid mix not stated
[4] = OVA encoded LNPs, payload 5-moU OVA, LM02, N/P 8
[5] = OVA encoded LNPs, payload WT OVA, LM02, N/P 8

| Diameter (Z. ave, nm) [1, 2] | Encapsulation Efficiency (%) [1, 2] | Polydispersity Index (PDI) [1, 2] | Diameter (Z. ave, nm) [1, 3] | Encapsulation Efficiency (%) [1, 3] | Polydispersity Index (PDI) [1, 3] | Diameter (Z. ave, nm) [1, 4] | Encapsulation Efficiency (%) [1, 4] | Polydispersity Index (PDI) [1, 4] | Diameter (Z. ave, nm) [1, 5] | Encapsulation Efficiency (%) [1, 5] | Polydispersity Index (PDI) [1, 5] | Compound | EPO Protein expression: IV in mice (C57BL/6 mice) | serum rhEPO expression level (C57BL/6 mice; i.v., 0.5 mg/Kg, FIG. 8) | delivering hEPO and expressing hEPO in vivo (C57BL/6 mice; i.v., 1 and 3 mg/Kg, LM02, N/P 6, 6 h and 24 h, FIG. 7) |
| --- | --- | --- | --- | --- | --- | --- | --- | --- | --- | --- | --- | --- | --- | --- | --- |
| 76.6 nm | 97.3% | 0.04 | 124.7 nm | 60.1% | 0.054 | – | – | – | 96.5 nm | 76.1% | 0.03 | CC/C=C\CC1C(CC(=O)OCC(COCCCCCCCC/C=C\C/C=C\CCCCC)OCCCCCCCC/C=C\C/C=C\CCCCC)CCC1OC(=O)C1(C)CCN(C)CC1 (stereo not shown) [PNI 123] | *** | – | performed very well against MC3 LNP |
| 60.8 nm | 97.9% | 0.03 | 69.9 nm | 97.4% | 0.03 | – | – | – | – | – | – | CC/C=C\CC1C(CC(=O)OCCC(CCCCCCCC)OC(=O)C(CCCCCC)CCCCCCCC)CCC1OC(=O)C1(C)CCN(C)CC1 (stereo not shown) [PNI 565] | *** | – | – |
| 56.9 nm | 96.3% | 0.09 | 64.0 nm | 96.3% | 0.03 | – | – | – | – | – | – | CCCCCCCCC1CC1CCCCCCCCOCC(COC(=O)CC1CCC(OC(=O)CCN(C)C)C1CC1CC1CC)OCCCCCCCCC1CC1CCCCCCCC (stereo not shown) [PNI 546] | * | – | – |
| 71.8 nm | 98.9% | 0.08 | 95.4 nm | 98.7% | 0.02 | – | – | – | – | – | – | CC/C=C\CC1C(CC(=O)OCC(COCCCCCCCC/C=C\C/C=C\CCCCC)OCCCCCCCC/C=C\C/C=C\CCCCC)CCC1OC(=O)CC1CCN(C)C1 (stereo not shown) [PNI 557] | ** | – | – |

The next lines start with the molecule.

| Compound | Diameter (Z. ave, nm) [1, 2] | Encapsulation Efficiency (%) [1, 2] | Polydispersity Index (PDI) [1, 2] | Diameter (Z. ave, nm) [1, 3] | Encapsulation Efficiency (%) [1, 3] | Polydispersity Index (PDI) [1, 3] | Diameter (Z. ave, nm) [1, 4] | Encapsulation Efficiency (%) [1, 4] | Polydispersity Index (PDI) [1, 4] | Diameter (Z. ave, nm) [1, 5] | Encapsulation Efficiency (%) [1, 5] | Polydispersity Index (PDI) [1, 5] | EPO Protein expression: IV in mice (C57BL/6 mice) | serum rhEPO expression level (C57BL/6 mice; i.v., 0.5 mg/Kg, FIG. 8) | delivering hEPO and expressing hEPO in vivo (C57BL/6 mice; i.v., 1 and 3 mg/Kg, LM02, N/P 6, 6 h and 24 h, FIG. 7) |
| --- | --- | --- | --- | --- | --- | --- | --- | --- | --- | --- | --- | --- | --- | --- | --- |
| CC/C=C\CC1C(CC(=O)OCCC(CCCCCCCC)OC(=O)C(CCCCCC)CCCCCCCC)CCC1OC(=O)CCN(C)C (stereo not shown) [PNI 554] | 55.4 nm | 97.5% | 0.09 | 55.1 nm | 96.6% | 0.06 | – | – | – | – | – | – | *** | – | – |
| CCCCCCCCC1CC1CCCCCCCCOCC(COC(=O)CC1CCC(OC(=O)CCCN(C)C)C1CC1CC1CC)OCCCCCCCCC1CC1CCCCCCCC (stereo not shown) [PNI 545] | 59.0 nm | 98.6% | 0.04 | 63.9 nm | 98.4% | 0.07 | – | – | – | – | – | – | *** | – | – |
| CC/C=C\CC1C(CC(=O)OC(CCCCCCCCC2CC2CCCCCCCC)CCCCCCCCC2CC2CCCCCCCC)CCC1OC(=O)CCCN(C)C (stereo not shown) [PNI 516] | 69.0 nm | 98.7% | 0.02 | 68.5 nm | 98.7% | 0.12 | 76.5 nm | 98.2% | 0.04 | 75.9 nm | 98.6% | 0.02 | **** | on par with MC3 | – |
| CC/C=C\CC1C(CC(=O)OCC(COCCCCCCCC/C=C\C/C=C\CCCCC)OCCCCCCCC/C=C\C/C=C\CCCCC)CCC1OC(=O)C1CCN(C)CC1 (stereo not shown) [PNI 132] | 70.3 nm | 98.2% | 0.04 | 74.5 nm | 98.2% | 0.06 | – | – | – | 82.6 nm | 97.1% | 0.07 | *** | – | – |
| CC/C=C\CC1C(CC(=O)OCC(COCCCCCCCC/C=C\C/C=C\CCCCC)OCCCCCCCC/C=C\C/C=C\CCCCC)CCC1OC(=O)CCCN(CC)CC (stereo not shown) [PNI 542] | 68.5 nm | 98.7% | 0.02 | 79.4 nm | 98.8% | 0.04 | – | – | – | 74.6 nm | 98.7% | 0.01 | *** | – | – |
| CC/C=C\CC1C(CC(=O)OCC(COCCCCCCCC/C=C\C/C=C\CCCCC)OCCCCCCCC/C=C\C/C=C\CCCCC)CCC1OC(=O)CC1CCCCN1C (stereo not shown) [PNI 559] | 64.6 nm | 97.3% | 0.03 | 59.4 nm | 95.9% | 0.07 | – | – | – | – | – | – | *** | – | – |
| CC/C=C\CC1C(CC(=O)OCC(COCCCCCCCCC2CC2CCCCCCCC)OCCCCCCCCC2CC2CCCCCCCC)CCC1OC(=O)CCN(C)C (stereo not shown) [PNI 544] | 62.3 nm | 97.6% | 0.05 | 51.3 nm | 97.9% | 0.04 | – | – | – | – | – | – | *** | – | – |
